Data published in patent US20030007996A1, “Therapies for the prevention and treatment of diabetes and obesity” (priority 2001, published 2003).

Tests used:
soleus muscle strips = experiment: 3-O-methyl glucose transport (3MGT) in incubated soleus muscle strips (Example 12); type: cell-based, rat; conditions: for effect on 3MGT: 10 minute incubation
Protocol: Male Sprague-Dawley rats are used in all the following examples. Soleus muscle strips are incubated as described by Bonen et al (1992), Wilkes and Bonen (2000) and Bonen et al (1994) to determine glucose transport. Basal and insulin-stimulated 3-O-methyl glucose transport (3MGT) is examined in a dose dependent (0-10 nM) manner during a 10 minute incubation period in appropriate buffer (Bonen et al., 1994). Comparison of this dose-response relationship of insulin, and the A1 agonist CPA, and A2 agonist DPMA on 3MGT is conducted. 3MGT rates are linear for up to 20 minutes. The 10 minute period is therefore a convenient time point to acquire sufficient counts in the muscle at a reasonable cost of using radiolabelled 3MGT.
Optimal stimulating concentrations of insulin, CPA, and DPMA are established for 3MGT.

Akt = experiment: Signaling protein activation in isolated rodent muscles (Example 14); type: cell-based, rat
Protocol: Experiments with insulin, CPA and DPMA are performed in isolated muscles using optimal stimulating concentrations to determine which signaling proteins are activated. For this purpose, isolated rodent muscles are incubated with either basal or maximal insulin concentrations with and without either CPA or DPMA. Glucose transport is determined by 3MGT, measured over 10 minutes. The muscle samples are analyzed for IRTK, IRS-1 associated P13 kinase, p38 MAP kinase and Akt activities. The critical exposure time to activate signaling proteins is established in pilot work. […] Optimal exposure times required for signaling protein activation by CPA and DPMA are established. […] We establish that blocking P13-kinase with LY29004 blocks downstream activation of Akt by insulin, and by CPA and DPMA.

[1] = test system: A1 and A2 adenosine receptors; experiment: Adenosine receptor-stimulated adenylate cyclase activity (cAMP) in skeletal muscle homogenates (Example 4); type: biochemical, rat
Protocol: The purpose of this study was to investigate the presence of A1 and A2 adenosine receptors (AR) in rat and human skeletal muscle. Adenosine receptor-stimulated adenylate cyclase activity studies were conducted to determine cAMP responses in the presence of AR agonists using rat skeletal muscle homogenates. Subsequently, Western blotting experiments were conducted to identify the A1 and A2 receptor proteins in rodent and human skeletal muscle samples. […] There was little effect of R-PIA (an A1 AR agonist) on cAMP levels in any fiber type. […] A2a expression was highest in the liver compared to muscle and heart homogenates.

[2] = test system: obese (BMI>30) nondiabetic males; experiment: OGTT after caffeine ingestion in obese nondiabetic males (Example 5); type: in vivo, human; conditions: obese males (n=4)
[3] = test system: obese (BMI=30-38 kg/m2) men; experiment: OGTT after caffeine before and after a weight loss program (Example 6); type: in vivo, human
young type 1 diabetics = experiment: Caffeine followed by high glycemic index cereal in type 1 diabetics (Example 18); type: in vivo, human
Protocol: Young type 1 diabetics (5 females and 1 male) who had been diagnosed for an average of 8.3±5.4 years volunteered to perform two trials in a randomized, double blind study design. Subjects were given either placebo or caffeine-containing (5 mg/kg) capsules and 30 minutes later they self-administered the appropriate amount of insulin for the ingestion of 60 g of carbohydrates in the form of a high glycemic cereal with 125 ml of 1% milk. The amount of self-administered insulin and injection site were the same for both trials. Venous blood glucose was measured prior to capsule ingestion, prior to insulin injection, and immediately following ingestion of the cereal meal (t=0 minutes). Blood glucose was then measured every 15 minutes for the next 2.5 hours.

healthy male subjects = experiment: OGTT after alkaloid caffeine, caffeinated coffee, decaffeinated coffee or placebo (Example 3); type: in vivo, human; conditions: two hours of the OGTT; n=10
Protocol: (§1) The methods and materials employed in this invention are common to those skilled in the art. The methods and materials for the hyperinsulinemic euglycemic glucose clamp test are found in Greer et al., 2001. The methods and materials for the oral glucose tolerance test (OGTT) are described in Graham et al., 2001.
Venous blood samples were taken at −30, 0 (treatment given), 60 (OGTT administered), 75, 90, 120, 150 and 180 minutes and were analyzed for glucose, insulin, C peptide, glycerol, free fatty acids and lactate. Area under the curve (AUC) were calculated for the two hours of the OGTT. […] This component acts as an adenosine receptor […].

[4] = test system: obese and Type 2 diabetic males; experiment: OGTT with and without caffeine in lean, obese and Type 2 diabetic males (Example 8); type: in vivo, human
Source text: The results will be compared to the current data base; containing data (28,40) collected in an identical fashion for 30 lean (BMI of less than 25) males age 18-30 years. Lean subjects have BMI of less than 25, the obese are class I (BMI 30-34), abdominal obese (waist circumference>100 cm) and the diabetics have the same anthropometry. The diabetics are volunteers who have been well controlled for a year, with glycosylated hemoglobin levels between 6.5-9.5% for at least three months. They have similar levels of obesity, are not insulin-dependent, and are not on oral hypoglycemic agents, but rather diet-controlled. Their participation is medically approved and they are screened for hypertension and angina. The area under the curve for insulin and C-peptide is greater for the obese and even greater for the diabetic subjects. […] Data also includes plasma catecholamines, methylxanthines, FFA, and glycerol.

[5] = test system: obese type 2 diabetic males; experiment: OGTT with and without caffeine in obese type 2 diabetic males (Example 19); type: in vivo, human
lean sedentary males = experiment: Hyperinsulinemic euglycemic clamp after caffeine ingestion (Example 1); type: in vivo, human
Protocol: as §1
Trials were separated by one week. Prior to each clamp session, subjects withdrew from methylxanthine containing products for 48 hours.

[6] = test system: young, sedentary, obese males; experiment: OGTT after caffeine in obese, resting males (Example 7); type: in vivo, human; conditions: p<0.05
young, fit, adult males = experiment: Oral glucose tolerance test (OGTT) after caffeine ingestion in lean males (Example 2); type: in vivo, human
Source text: as §1
Young, fit, adult males (n=18) underwent two oral glucose tolerance tests (OGTT). […] Following the OGTT all of these parameters increased (p≦0.05) for the duration of the OGTT. […] During the OGTT these decreased to match those of the placebo trial. […] The data support the hypothesis that caffeine ingestion impairs glucose disposal.

[7] = caffeine 5 mg/kg 1 h before 75 g dextrose, p≦0.05
[8] = last 90 minutes of the OGTT, p≦0.05

For `OC[C@H]1O[C@@H](n2cnc3c(NC4CCCC4)ncnc32)[C@H](O)[C@@H]1O` [CPA, N6-cyclopentyladenosine], the “effect on 3MGT” value (soleus muscle strips) was “increases”.
With `COc1cc(OC)cc(C(CNc2ncnc3c2ncn3[C@@H]2O[C@H](CO)[C@@H](O)[C@H]2O)c2ccccc2C)c1` (stereo partly shown) [DPMA, N-[2-(3,5-dimethoxy-phenyl)-2-(2-methylphenyl)ethyl]-adenosine] the “effect on 3MGT” value (soleus muscle strips) was “increases”.
For `O=c1cc(N2CCOCC2)oc2c(-c3ccccc3)cccc12` [LY29004], the “effect on downstream activation of Akt by insulin, and by CPA and DPMA” value (Akt) was “blocks”, the “effect on CPA- and DPMA-induced increases in 3MGT” value (soleus muscle strips) was “inhibited” and the “effect on insulin stimulated 3MGT” value (soleus muscle strips) was “inhibited”.
With `CCNC(=O)[C@H]1O[C@@H](n2cnc3c(N)ncnc32)[C@H](O)[C@@H]1O` [NECA] the “effect on cAMP production” value ([1]; glycolytic samples) was “no effect” and the “increase in cAMP production” value ([1]; rat oxidative muscle homogenates) was 7.5 fold.
With `C[C@H](Cc1ccccc1)Nc1ncnc2c1ncn2[C@@H]1O[C@H](CO)[C@@H](O)[C@H]1O` [R-PIA] the “effect on cAMP levels” value ([1]; any fiber type) was “little effect”.
For `Cn1c(=O)c2c(ncn2C)n(C)c1=O` [caffeine], the “AUC for GLU” value [2] was 167 mM/2 h, the “insulin AUC” value ([2]; placebo 6938) was 10,968 uU/ml/2 h and the “increase in insulin during the OGTT compared to placebo” value ([3]; following the twelve week intervention, p=0.056) was “greater”. For the same molecule, the “blood glucose vs placebo” value ([3]; prior to the twelve week intervention) was “no differences”, the “insulin response during the OGTT vs placebo” value ([3]; prior to the twelve week intervention, caffeine 5 mg/kg, p=0.043) was “greater” and the “difference in the glucose area under the curve, caffeine vs placebo” value (young type 1 diabetics; caffeine 5 mg/kg) was 72%. The “glucose area under the curve” value (young type 1 diabetics; caffeine 5 mg/kg capsules, placebo 347±7.4, p<0.01) was 598±7.4 mM/2.5 h, the “AUC for glucose, comparison between treatments” value (healthy male subjects) was “higher than both CC (p<0.04) and DC (p<0.01)” and the “AUC for insulin, comparison between treatments” value (healthy male subjects) was “higher AUC for insulin (see FIG. 5) than both PL (p<0.002) and DC (p<0.001)”. The “AUC for peptide C, comparison between treatments” value (healthy male subjects) was “higher values than both PL (p<0.02) and DC (p<0.001)”, the “area under the curves for insulin and C-peptide following caffeine ingestion” value ([4]; lean subjects) was “increased” and the “area under the curves for insulin and C-peptide following caffeine ingestion” value ([4]; obese and diabetic subjects, relative to lean) was “even greater response”. The blood glucose ([5]; 180 minutes following ingestion of the OGTT, caffeine 5 mg/kg, placebo 7.4±1.0) was 8.4 ± 0.8 mM, the “blood glucose compared with placebo” value ([5]; last hour of the OGTT (120 to 180 minutes), p<0.05) was “significantly elevated” and the “decrease in carbohydrate storage compared to placebo” value (lean sedentary males; caffeine 5 mg/kg) was 35%. The “decrease in glucose disposal” value (lean sedentary males; caffeine 5 mg/kg vs placebo) was 24%, the glucose disposal (lean sedentary males; caffeine 5 mg/kg, placebo 8.42+/−0.63, n=9) was 6.38 ± 0.76 mg/kg/min and the “glucose area under the curve during the OGTT” value ([6]; caffeine 5 mg/kg, n=28, placebo 188.5) was 260.1 mM/2h. For the same molecule, the “insulin area under the curve during the OGTT” value ([6]; caffeine 5 mg/kg, n=28, placebo 7037.9) was 9455.8 uIU/ml/2h, the “glucose level vs placebo” value ([6]; last 90 minutes of the OGTT) was “significantly greater” and the “insulin level vs placebo” value ([6]; last 105 minutes of the OGTT) was “significantly greater”. For the same molecule, the “serum fatty acids, glycerol and plasma epinephrine” value (young, fit, adult males; after caffeine ingestion, before OGTT, p≦0.05) was “increase”, the “serum C peptide area under the curve, greater than placebo” value (young, fit, adult males; [7]) was 37% and the “serum insulin area under the curve, greater than placebo” value (young, fit, adult males; [7]) was 60%. For the same molecule, the “blood glucose level vs placebo” value (young, fit, adult males; during OGTT) was “no differences between trials”, the “serum C peptide concentration vs placebo” value (young, fit, adult males; [8]) was “significantly greater” and the “serum insulin concentration vs placebo” value (young, fit, adult males; [8]) was “significantly greater”. For the same molecule, the “AUC for GLU” value (young, fit, adult males; lean males (n=18), OGTT) was 168 mM/2 h and the “insulin AUC” value (young, fit, adult males; lean males (n=18), OGTT, placebo 3274) was 5242 uU/ml/2h.
